The values below come from patent publication US6319929A, “Suksdorfin analogs, compositions thereof, and methods for making and using thereof” (priority 1998, dated 2001).

Bounds are passed on as bounds.

Data set [1] has as its system HIV-1 replication in fresh elutriated monocytes. Kind of data set: HIV-1 infection of primary elutriated monocytes (p24 antigen). The class given is cell-based. From the text:
In order to determine if compound 16 suppressive activity was limited to only fresh T cells infected with HIV-1, elutriated monocytes were infected with HIV-1 and then cultured with various concentrations of compound 16 or AZT. […] This illustrates that the effect of the drμg is not only limited to T cells but also can effect virally infected monocytes.

Data set [2] relates to uninfected H9 cells. Put plainly: Toxicity to uninfected H9 cells (cell growth). The class given is cell-based. To be noted: Homo sapiens. As to the method: HIV inhibition assay. The HIV inhibition was measured as described herein. Briefly, H9 cells, a T cell line, (3.5×10^6 cells/ml) were incubated in the presence or absence of HIV-1 (IIIB strain, 0.01-0.1 TCID50 /cell) for 1 hour at 37° C. Cells were washed thoroughly and resuspended at a final concentration of 2×10^5 cells/ml in the presence or absence of compound. After incubation for 3-4 days at 37° C., the cell density of uninfected cultures was determined by cell count to assess toxicity of the drug. An aliquot of each cell-free supernatant was assayed by p24 antigen ELISA to quantitate the amount of HIV-1 present in the infected cultures. Test compounds were considered to be active at a particular concentration if p24 antigen levels were less than 70% of infected, untreated controls and were nontoxic to uninfected H9 cells.
(§1) HIV Growth Inhibition Assay: The T cell line, H9, and the promonocytic cell line, U937, were maintained separately in continuous culture with complete medium (RPMI 1640 and […] fetal calf serum (FCS) at 5% CO2 and 37° C. Cell lines were used in experiments only when in log phase of growth; whereas, uninfected peripheral blood mononuclear cells (PBMCs) were first stimulated with PHA (1 μg/ml) for 3 days. All cell targets were incubated with HIV-1 (IIIB isolate, TCID50 10 ^4 IU/mi, at a multiplicity of infection of 0.1-0.01 IU/cell) for 1 hour at 37° C. and 5% CO2. The cell lines and PBMCs were washed thoroughly to remove unabsorbed virions and resuspended at 4×10^5 cells/ml in complete medium or complete medium with 10% v/v interleukin […] IL-2, respectively. Aliquots ( ml) were placed in wells of 24-well culture plates containing an equal volume of test compound (diluted in the appropriate culture medium). After incubation for 4 days at 37° C., cell density of uninfected cultures was determined by counting cells in a Coulter counter to assess toxicity of the test compound. A p24 antigen ELISA assay was used to determine the level of virus released in the medium of the HIV-infected cultures. The p24 antigen assay uses a HIV-1 anti-p24 specific monoclonal antibody as the capture antibody coated-on 96-well plates. Following a sample incubation period, rabbit serum containing antibodies for HIV-1 p24 is used to tag any p24 "captured" onto the microtiter well surface. Peroxidase conjugated goat anti-rabbit serum is then used to tag HIV-1 p24 specific rabbit antibodies which have complexed with captured p24. […] The cut-off for the p24 ELISA assay is 12. pg/ml. P24 in the culture medium was quantitated against a standard curve containing known amounts of p24. The effective (EC50) and inhibitory (IC50) concentrations (for anti-HIV activity and cytotoxicity, respectively) were determined graphically. Both the EC50 and IC50 values were calculated by plotting drug concentration versus percent inhibition, and then identifying a 50% inhibition value from the graph.

For data set [3], the system named is uninfected H9 cells. Put plainly: Combination study of suksdorfin with AZT, ddI and ddC: toxicity to uninfected H9 cells. Particulars: for IC50: Homo sapiens. The class given is cell-based. As to the method: Pharm. Asso. […] Aliquots ( ml) were placed in wells of 24-well culture plates containing an equal volume of test compound (diluted in the appropriate culture medium). After incubation for 4 days at 37° C., cell density of uninfected cultures was determined by counting cells in a Coulter counter to assess toxicity of the test compound. A p24 antigen ELISA assay was used to determine the level of virus released in the medium of the HIV-infected cultures. The p24 antigen assay uses a HIV-1 anti-p24 specific monoclonal antibody as the capture antibody coated-on 96-well plates. Following a sample incubation period, rabbit serum containing antibodies for HIV-1 p24 is used to tag any p24 "captured" onto the microtiter well surface. […] The cut-off for the p24 ELISA assay is 12. pg/ml. P24 in the culture medium was quantitated against a standard curve containing known amounts of p24. The effective (EC50) and inhibitory (IC50) concentrations (for anti-HIV activity and cytotoxicity, respectively) were determined graphically.
Combination Study: The experimental design is identical to the growth inhibition assay except that various concentrations of AZT, ddI or ddC were also added to cultures of acutely HIV-1 infected H9 cells that either have or have no received different concentrations of suksdorfin.

Data set [4] concerns HIV-1 replication in U937 cells. Put plainly: HIV-1 replication in acutely infected promonocytic U937 cells. To be noted: for EC50: Human immunodeficiency virus 1, U-937. The class given is cell-based, HIV-1 (IIIB). As to the method: (§2) Suksdorfin was also tested on an acute HIV-1 infection of the promonocytic cell line, U937. This was done again to determine drug specificity but this time on a monocytic cell line.
As part of efforts to biologically characterize 16 the monocytic cell line, U937 and peripheral blood mononuclear cells (PBMCs) were separately infected with HIV-1 and then had various concentrations of the analog added for 4 days of culture.
as §1

Data set [5] has as its system HIV-2 replication in HUT-78 cells. Put plainly: Suppression of virus replication during HIV-2 infection of HUT-78 cells (reverse transcriptase assay). Format: cell-based. From the text: During this experiment, HIV-2 was used. The basic assay system is identical to that used for HIV-1 except that a different virus stock was used and rather than a p24 antigen ELISA determination a reverse transcriptase assay was used to detect the presence of the virus.

The next data set relates to U937 cells. Put plainly: Toxicity to uninfected U937 cells. Particulars: Homo sapiens, U-937; U937 cell line. The class given is cell-based. As to the method: as §2
HIV Growth Inhibition Assay: The T cell line, H9, and the promonocytic cell line, U937, were maintained separately in continuous culture with complete medium (RPMI 1640 and […] fetal calf serum (FCS) at 5% CO2 and 37° C. Cell lines were used in experiments only when in log phase of growth; whereas, uninfected peripheral blood mononuclear cells (PBMCs) were first stimulated with PHA (1 μg/ml) for 3 days. All cell targets were incubated with HIV-1 (IIIB isolate, TCID50 10 ^4 IU/mi, at a multiplicity of infection of 0.1-0.01 IU/cell) for 1 hour at 37° C. and 5% CO2. The cell lines and PBMCs were washed thoroughly to remove unabsorbed virions and resuspended at 4×10^5 cells/ml in complete medium or complete medium with 10% v/v interleukin (Pettinato, et al. J. Amer. Pharm. Asso. […] After incubation for 4 days at 37° C., cell density of uninfected cultures was determined by counting cells in a Coulter counter to assess toxicity of the test compound. […] P24 in the culture medium was quantitated against a standard curve containing known amounts of p24. The effective (EC50) and inhibitory (IC50) concentrations (for anti-HIV activity and cytotoxicity, respectively) were determined graphically. […]

Regarding `Cc1cn([C@H]2C[C@H](N=[N+]=[N-])[C@@H](CO)O2)c(=O)[nH]c1=O` [AZT, azidothymidine, reference compound], the p24 antigen is 83 pg/mL in data set [1] (Day 17, 0.0001 μg/ml); 100 pg/mL in data set [1] (Day 17, 0.001 μg/ml); 7 pg/mL in data set [1] (Day 17, 0.01 μg/ml); 5 pg/mL in data set [1] (Day 17, 0.1 μg/ml); 2 pg/mL in data set [1] (Day 17, 1 μg/ml); 0.1 pg/mL in data set [1] (Day 17, 10 μg/ml). Besides, the p24 antigen in data set [1] (Day 28, 0.0001 μg/ml) came to 0 pg/mL; in data set [1] (Day 28, 0.001 μg/ml), 0 pg/mL; in data set [1] (Day 28, 0.01 μg/ml), 0 pg/mL; in data set [1] (Day 28, 0.1 μg/ml) it was 0 pg/mL; in data set [1] (Day 28, 1 μg/ml), 0 pg/mL; in data set [1] (Day 28, 10 μg/ml), 0 pg/mL. Further, the IC50 is 2000 µM in the data set on uninfected H9 cells [2] (H9, Table 3, H9 lymphocytes); 1880 µM in the data set on uninfected H9 cells [2] (H9, Table 17, uninfected H9 cell growth); greater than 1 µg/mL with uninfected H9 cells [3] (H9); greater than 1 µg/mL with uninfected H9 cells [3] (H9, read-out: IC50 (μM)^a).

Consider `CC1(C)Oc2ccc3ccc(=O)oc3c2[C@@H](OC(=O)[C@@]23CC[C@@](C)(C(=O)O2)C3(C)C)[C@H]1OC(=O)[C@@]12CC[C@@](C)(C(=O)O1)C2(C)C` [Compound 16, 3',4'-Di-O-(-)-Camphanoyl-(+)-cis-Khellactone], for which the concentration for a half-maximal effect (EC50) came to 0.00128 µg/mL in data set [4] (U937 cell line) and 0.0021 µM in data set [4] (U937 cells). Moreover, the “suppression of acute HIV-1 replication in U937 cells (in words)” value in data set [4] (U937 cells) is reported as “suppression detected”. Moreover, the “suppression of HIV-1 replication in fresh elutriated monocytes (in words)” value in data set [1] is on record as “able to suppress HIV-1 replication in fresh elutriated monocytes”. Besides, the p24 antigen in data set [1] (Day 17, 0.0000102 μg/ml) is 49 pg/mL; in data set [1] (Day 17, 0.0000512 μg/ml), 52 pg/mL; in data set [1] (Day 17, 0.000256 μg/ml) it was 70 pg/mL; in data set [1] (Day 17, 0.00128 μg/ml) it was 306 pg/mL; in data set [1] (Day 17, 0.0064 μg/ml), 66 pg/mL; in data set [1] (Day 17, 0.032 μg/ml), 94 pg/mL. The p24 antigen in data set [1] (Day 17, 0.16 μg/ml) was 7 pg/mL; in data set [1] (Day 17, 0.8 μg/ml) it was 6 pg/mL; in data set [1] (Day 17, 4 μg/ml), 6 pg/mL; in data set [1] (Day 17, 20 μg/ml), 5 pg/mL; in data set [1] (Day 28, 0.0000102 μg/ml), 1536 pg/mL; in data set [1] (Day 28, 0.0000512 μg/ml), 824 pg/mL. Also, the p24 antigen in data set [1] (Day 28, 0.000256 μg/ml) came out at 760 pg/mL; in data set [1] (Day 28, 0.00128 μg/ml), 208 pg/mL; in data set [1] (Day 28, 0.0064 μg/ml), 584 pg/mL; in data set [1] (Day 28, 0.032 μg/ml), 0 pg/mL; in data set [1] (Day 28, 0.16 μg/ml), 0 pg/mL; in data set [1] (Day 28, 0.8 μg/ml), 0 pg/mL. Besides, the p24 antigen in data set [1] (Day 28, 4 μg/ml) is 0 pg/mL; in data set [1] (Day 28, 20 μg/ml) it was 0 pg/mL. The “effect on HIV-2 replication (in words)” value in data set [5] is “no effect on the virus replication of HIV-2”.

With `CC(=O)O[C@@H]1[C@H](OC(=O)CC(C)C)c2c(ccc3ccc(=O)oc23)OC1(C)C` [Suksdorfin, suksdorfin], the EC50 was 0.58 µg/mL in data set [4] (U937 cell line) and 1.5 µM in data set [4] (U937 cells). Further, the “Therapeutic Index” value in data set [4] (U937 cell line, 5760 min) is listed as greater than 34.5. For the same molecule, the “suppression of acute HIV-1 replication in U937 cells (in words)” value in data set [4] (U937 cells) is on record as “can suppress an acute HIV-1 replication”. Further, in data set [4] (U937 versus PBMCs), the “EC50 from U937 cells relative to that for PBMCs” value is given as “approximately one third”. For the same molecule, the IC50 with U937 cells was greater than 20 µg/mL; with uninfected H9 cells [2] (H9, Table 14, concentration which inhibits uninfected cell growth by 50%, read-out: IC50 (μM)^a), greater than 52 µM; in the data set with uninfected H9 cells [2] (H9, Table 17, uninfected H9 cell growth, read-out: IC50), greater than 52 µM; in the data set on uninfected H9 cells [2] (H9, concentration which inhibits uninfected cell growth by 50%, read-out: IC50) it was greater than 52 µM. In addition, in the data set with uninfected H9 cells [3] (20 μg/ml), the “toxicity to H9 cells” value is “toxic to H9 cells”.

One may read the IC50 as the midpoint of a concentration-inhibition curve. Broadly, the EC50 is the concentration needed to bring the measured effect to its halfway point. Higher therefore signals lower potency in that assay.
